# Assay results from patent publication US11291684B2, “Treatment of glaucoma” (TX MEDIC AB, priority 2017, dated 2022).
# How the values were obtained:
# [1] = system: trabecular meshwork (TM) scarring; test: Trabecular meshwork scarring: laminin and fibronectin immunohistochemistry in the angle; assay type: in vivo, Sprague Dawley rats; details: rat TGF-β glaucoma model, day 28, vs saline
# Text: Measured End-Points • IOP twice weekly throughout study from day 0 to day 28; • Immunohistochemistry for counting RGC that are immunoreactive for brain-specific homeobox/POU domain protein 3A (Brn3a) at day 28 (RGC survival); • Immunohistochemistry for laminin and fibronectin to evaluate scarring in the trabecular meshwork at day 28 in Groups 1 and 2; • Anterior segment and OCT imaging at day 28 to examine the angle and the thickness of the retinal nerve fiber layer comprising RGC axons; and • Body weight at day 28. […]
# After immunofluorescence staining, sections were viewed on a Zeiss Axioplan 2 epi-fluorescent microscope (Carl Zeiss Ltd) and images captured using the same exposure times for each antibody using a Zeiss AxioCam HRc. IHC was quantified according to the methods previously described. Briefly, the region of interest used for quantitation of TM fibrosis was defined by a quadrant of the same prescribed size for all eyes/treatments within the TM, and ECM deposition was quantified within this defined quadrant of the TM and the % immunofluorescent pixels above a standardized background threshold calculated using ImageJ software (National Institutes of Health, USA). […] Images were assigned randomized numbers to ensure blinding of treatment groups during quantification by the assessor.
# [2] = system: laser-induced CNV; test: Isolectin B4 and collagen IV staining of RPE/choroidal/sclera wholemounts in laser-induced CNV model; assay type: in vivo, C57BL/6J mice
# Protocol: Mice were anaesthetized with an intraperitoneal injection of 75 mg/kg ketamine and 7.5 mg/kg xylazine. The pupils were dilated with 1% atropine and 2.5% phenylephrine (Bausch & Lomb). To induce CNV, the rupture of Bruch's membrane-choroid was achieved by laser photocoagulation using the HGM Elite 532 Green Laser (Litechnica Ltd, Middesex, UK) with the spot size of 100 μm, 250 mW power and 100 msec duration. The laser spots were placed between retinal vessels and 2 to 3 disc-diameter away from the optic disc. The formation of a bubble at the site of laser application indicates the successful rupture of Bruch's membrane. Only laser burns in which a bubble was produced were included in this study. […] Three laser burns were applied to each retina.
# Immediately after CNV induction, all mice were injected subcutaneously with 500 μl of dextran sulfate or saline. The injection was repeated once daily for 9 days post laser-CNV induction.
# On day 10 post-CNV induction, all mice were sacrificed and eyes were carefully removed. All eyes were fixed in 2% paraformaldehyde/PBS (Sigma-Aldrich, Dorset, UK) for 2 h at room temperature and then washed and stored in PBS at 4° C. RPE-choroid-sclera wholemounts were prepared using the protocol described. Briefly, the anterior segment of the eye, including the cornea, ciliary body, iris and the lens were removed. Five vertical cuts were made to the eye cup, and the retinal tissue was then carefully removed. The extra ocular tissues, including conjunctiva and ocular muscles were carefully removed from the eye-cup (containing RPE/choroid/sclera). The RPE/choroidal/sclera wholemounts were further processed for Griffonia simplicifolia lectin 1-isolectin B4 and collagen IV immunostaining.
# CNV was detected using the well-established isolectin B4 and collagen IV labelling technique. Isolectin B4 labels both infiltrating macrophages and vascular endothelial cells. Collagen IV labels the basal lamina of blood vessels. Both markers have been used widely to detect CNV.
# RPE/choroidal/sclera wholemounts were permeablized with 0.5% Triton X-100/PBS for 1 h at room temperature. The samples were then blocked with 10% BSA in 0.5% Triton X-100/PBS for 1 h and incubated with biotinylated Griffonia simplicifolia lectin 1-isolectin B4 (GSL Isolectin B4, 1:50, Vector Laboratories Ltd, UK) and collagen IV (1:50, BIO-RAD, UK) overnight at 4° C. After thorough washing in PBS (10 minutes×3), samples were incubated with streptavidin-fluorescein isothiocyanate (FITC) (1:100, Vector laboratories, UK) and goat anti rabbit AF594 (1:100, Invitrogen, UK) for two hours at room temperature. Samples were flat-mounted on glass slides with Vectashield Mounting Medium (Vector Laboratories Ltd, UK) and observed by fluorescent microscopy.
# Lecia fluorescent microscope was used to acquire images from above prepared RPE-choroidal/sclera wholemount samples. A 10× objective lens was used to allow capturing the whole area of a CNV. The imaging software ImageJ was used to analyze the images. To measure the size of CNV, the border of CNV was outlined manually and the size was automatically calculated using Image J software.
# All data (the size of CNV in each group) were expressed as mean±SEM. Student t test was used to compare the difference between the dextran sulfate group and the saline control group.
# 24 C57BL/6J mice (10˜12 weeks old) were used in this study. […]
# [3] = mouse laser-CNV, day 10, 0.6 mg/ml, 500 μl s.c. once daily, mean±SEM
substance,measurement,setting,value
dextran sulfate,levels of immunoreactive laminin in the angle,[1]; P<0.001,significantly reduced
same,levels of immunoreactive fibronectin in the angle,[1]; P<0.01,significantly reduced
same,effects on the laser-induced CNV,[2]; dose of 0.6 mg/ml per day,neither anti-angiogenic nor pro-angiogenic effects
same,difference vs saline control in lectin B4+ lesions,"[2]; mouse laser-CNV, day 10",no statistical difference
same,difference vs vehicle (saline) in collagen IV new blood vessel area,"[2]; mouse laser-CNV, day 10",no statistical significant difference
same,average isolectin B4 positive area,[2]; [3],43972±2302 μm^2
same,means of area of new blood vessels (collagen IV),[2]; [3],54681±2378 μm^2
